# Experimental data: US7776873B2, “Method for treating damage to gastric mucosa” (Yuhan Corporation, priority 2005, dated 2010)
# Legend:
# [1] = tested on: ethanol-induced gastric mucosal lesions; experiment: Preventive effect on in vivo ethanol-induced gastric injury; parameters: species or system Sprague-Dawley male rats; settings: rats, 10 mg/kg via oro-gastric tube prior to absolute ethanol 6 ml/kg for 1 hr, FIG. 3B
# Excerpt: Six-week old specific-pathogen-free (SPF) Sprague-Dawley male rats (Charles River, Tokyo, Japan) were used for experiments. The rats were fed a sterilized commercial pellet diet (Biogenomics Co., Seoul, Korea), given sterile water ad libitum, and housed in air-conditioned biohazard room with a 12-h light:12-h dark cycle. The rats were divided into four groups; indomethacin-only treatment group, revaprazan-indomethacin treatment group, ethanol-only treatment group and revaprazan-ethanol treatment group. The rats were food-deprived 24 hours, and then administered with 10 mg/kg revaprazan suspended in 0.5% CMC (carboxymethylcellulose) via oro-gastric tube prior to exposure to either indomethacin (40 mg/kg for 12 hrs) or absolute ethanol (6 ml/kg for 1 hr). The stomachs of the rats belonging to the groups treated with indomethacin were excised and the degree of gastric mucosal lesions was observed (see FIG. 3A). Referring to FIG. 3A, in the indomethacin-only treatment group, increased hemorrhagic lesions in gastric mucosa were observed visually. […] Also, the stomachs of the rats belonging to the ethanol treatment groups were excised and the degree of gastric mucosal lesions was observed (see FIG. 3B).
# [2] = tested on: ERK (extracellular signal-regulated kinase); experiment: H. pylori-induced ERK activation (Western blot for p-ERK); type: cell-based, human; settings: AGS cells, 5 and 25 uM for 16 hours, then H. pylori 30 minutes, FIG. 4
# Procedure: H. pylori-induced cytotoxicity activates MAPK (Mitogen-Activated Protein Kinase), thereby resulting in apoptosis. Therefore, H. pylori infection leads to an increase in phosphorylation of ERK among three major subfamilies of MAPKs.
# The human gastric epithelial (AGS, KCLB 21739) cells were seeded in culture dishes at 2×10^6 cells/100 mm^2 and cultured in RPMI 1640 (Gibco BRL, Grand Island, N.Y., U.S.A.), supplemented with 100 units/mL penicillin, 100 ug/mL streptomycin, and 10% FBS (Fetal Bovine Serum). Revaprazan, dissolved in sterilized water, were added to AGS cells to reach final concentrations of 5 and 25 uM and the cells were incubated at 37° C. for 16 hours. RPMI 1640 media was removed and then the cells washed three times with PBS (137 mM NaCl, 2.7 mM KCl, 10 mM Na2HPO4, and 2 mM KH2PO4). For inoculation, H. pylori (ATCC 43504) cultures were resuspended in PBS and cocultured with AGS cells at a final concentration of 5×10^8 CFU/ml. After 30 minutes of incubation at 37° C., the cells were resuspended in lysis buffer (20 mM Tris-Cl (pH 7.5), 150 mM NaCl, 1% Triton X-100, 1 mM EDTA, and protease inhibitor cocktail (Roche, Mannheim, Germany)). The suspension was sonicated for approximately 10 seconds, four times using the BIORUPTOR (Cosmo Bio, Koto-ku, Tokyo), and centrifuged at 4° C., 12000 rpm for 30 minutes. […]
# [3] = tested on: indomethacin-induced gastric mucosal lesions; experiment: Preventive effect on NSAID-induced gastropathy; type: in vivo, Sprague Dawley male rats; settings: rats, oro-gastric pretreatment (revaprazan 5, 10 mg/kg; rebamipide 30 mg/kg; omeprazole 5 mg/kg) prior to indomethacin 40 mg/kg for 12 hrs, FIG. 8
# Procedure: Six-week old specific-pathogen-free (SPF) Sprague Dawley male rats (Charles River, Tokyo, Japan) were used for experiments. The rats were fed a sterilized commercial pellet diet (Biogenomics Co., Seoul, Korea), given sterile water ad libitum, and housed in air-conditioned biohazard room with a 12-h light:12-h dark cycle. The rats were food-deprived 24 hours, and then administered with 5, 10 mg/kg revaprazan, 30 mg/kg rebamipide and 5 mg/kg omeprazole suspended in 0.5% CMC (carboxymethylcellulose) via oro-gastric tube prior to exposure to indomethacin (40 mg/kg for 12 hrs). Phosphate-buffered saline was perfused into the gastric lumen of the rats to swell the stomachs. Then, the stomachs were opened by an incision along the greater curvature, and the total area of the gastric mucosal lesions was calculated to obtain the average size of the lesions.
# [4] = tested on: indomethacin-induced gastric mucosal lesions; experiment: Treatment effect on NSAID-induced gastropathy; type: in vivo, Sprague Dawley male rats; settings: rats, 5 mg/kg and 10 mg/kg given 8 hours after indomethacin 40 mg/kg, for one hour, FIG. 9
# Procedure: Six-week old specific-pathogen-free (SPF) Sprague Dawley male rats (Charles River, Tokyo, Japan) were used for experiments. The rats were fed a sterilized commercial pellet diet (Biogenomics Co., Seoul, Korea), given sterile water ad libitum, and housed in air-conditioned biohazard room with a 12-h light:12-h dark cycle. The rats were food-deprived 24 hours, and then treated with 1 ml of a solution of indomethacin (40 mg/kg) in 0.5% CMC (carboxymethylcellulose) via oro-gastric tube. 8 hours after the indomethacin treatment, the rats were treated with 1 ml of a solution of revaprazan (5 mg/kg and 10 mg/kg) in 0.5% CMC for one hour, and the degree of gastropathy was determined in the same manner as in Example 8.
structure (smiles),measurement,setting,value
"Cc1nc(Nc2ccc(F)cc2)nc(N2CCc3ccccc3C2C)c1C (centres unmarked) [revaprazan, 5,6-dimethyl-2-(4-fluorophenylamino)-4-(1-methyl-1,2,3,4-tetrahydroisoquinolin-2-yl)pyrimidine]",ethanol-induced gastric injury,[1],completely inhibited
same,effect on ERK activation (p-ERK),[2],"significant, concentration-dependent inhibitory effect"
same,hemorrhagic gastric mucosal lesions after pretreatment,[3],little hemorrhagic lesions are observed
same,gastric mucosal hemorrhagic lesions after treatment,[4],remarkably improved
same,number of erosions and ulcers,[4],reduced
